Assay results as given in patent US10806735B2, “Use of neutrophil elastase inhibitors in liver disease” (pH Pharma Co., Ltd., priority 2018, dated 2020).
Read-outs that look alike come from different tables or passages of the source.

Key:
[1] = Solubility and hygroscopicity of the drug substance; format: physicochemical
[2] = Example 4: Phase 1 single-ascending dose study in healthy subjects, safety; conditions: single doses 1 to 40 mg
Source text: Following Screening, subjects received single doses of study drug and were monitored during an in-clinic period and an out-patient follow-up period. Subjects were confined to the study site for Study Days −2 through 7 to collect PK and safety assessments. Following discharge from the study site on Study Day 7, subjects returned to the study site on Study Days 14, 21, 28, and 35.

DIO mice [3] = test: Example 2: oral glucose tolerance test (OGTT) in DIO mice; format: in vivo; conditions: for decrease of glucose AUC on day 42 compared to baseline: vehicle 12.6±10.3%; for OGTT glucose AUC on day 42: vehicle 27.8±1.2; for OGTT glucose AUC on day 28: vehicle 27.9±1.1; for OGTT glucose AUC at baseline: day −1 before treatment
Protocol: (§1) Male DIO (diet-induced obesity) mice (C57BLJ6NTac DIO MPF, n=35) were purchased from Taconic Biosciences (Rensselaer, N.Y.). DIO mice were prepared by feeding male C57BL16 mice a high fat diet (HFD, D12492; Research Diets, Inc., New Brunswick, N.J.) from 6-16 weeks of age. A twelve-hour light cycle was maintained throughout study duration. Room temperature was monitored daily and maintained at 22-25° C. DIO mice were housed individually and maintained on the HFD during a 7-day facility acclimation period and throughout the study period. All mice were administered vehicle (5% DMSO/3% ethanol/92% peanut oil) once daily during the acclimation period.
(§2) Compounds were administered once daily in the morning by oral gavage for 6 weeks. Dose volume was maintained at 5 ml/kg throughout the study.
(§3) Whole blood was obtained weekly from fed animals by tail clip for measurement of non-fasted blood glucose (StatStrip; Nova Biomedical, Waltham, Mass.) on day 7, day 14, day 21 and day 35 after first dosing. Body weight was recorded prior to glucose measurement at baseline and weekly thereafter. Oral glucose tolerance tests were performed in fasted mice at baseline (day −1), day 28 and day 42 thereafter. […] At the end of the 6-hour fasting period, mice were challenged with glucose (2 g/kg, 10 ml/kg, by oral gavage). Blood samples were obtained by tail clip at 0, 20, 40, 60, 90 and 120 minutes post-glucose load for assessment of blood glucose by StatStrip. Serum insulin was measured from time 0 blood samples of OGTT using the Mouse/Rat Insulin Kit (MSD #K152BZC; Meso Scale Diagnostics, Rockville, Md.).
(§4) All data are represented as group mean±SEM. Data were analyzed using JMP (SAS software). All normalizations were calculated using terminal body weight. […] Treatment effects compared to vehicle were determined using Oneway ANOVA (*, p<0.05) followed by Dunnett's test where appropriate.

DIO mice [4] = test: Example 2: blood glucose (fasted and fed) in DIO mice; format: in vivo; conditions: for fed glucose on day 35: vehicle 134.5±6.9; for fasted blood glucose at study start: baseline before treatment
Protocol: as §1, §2, §3, §4

[5] = healthy subjects, cited from earlier work
[6] = Example 4: Phase 1 single-ascending dose study in healthy subjects, pharmacokinetics; format: in vivo, human; conditions: single doses 1 to 40 mg
[7] = Example 2: body weight of DIO mice, 6 weeks once daily oral dosing; format: in vivo; conditions: for terminal body weight: after 6 weeks, mean±SEM; for body weight at baseline: baseline before treatment
Protocol: as §1, §2, §3, §4

DIO mice [8] = test: Example 3: blood glucose in DIO mice; format: in vivo; conditions: for blood glucose at day 28: vehicle 143.0±7.1; for fasted blood glucose at study start: baseline before treatment
Protocol: Body weight was recorded prior to glucose measurement at baseline and weekly thereafter. […] All data are represented as group mean±SEM. Data were analyzed using Prism 7.0 (Graphpad software). All normalizations were calculated using terminal body weight. All assigned animals completed the study. […] Treatment effects compared to vehicle were determined using Oneway ANOVA (*, p<0.05; *, P<0.01) followed by Dunnett's test where appropriate.

DIO mice [9] = test: Example 2: fasted serum insulin in DIO mice; format: in vivo; conditions: for fasted serum insulin on day 42: vehicle 8.2±1.5; for fasted serum insulin at baseline: baseline before treatment
Protocol: as §1, §2, §3, §4

DIO mice [10] = test: Example 3: fasted serum insulin in DIO mice; format: in vivo; conditions: for fasted serum insulin on day 28: vehicle 7.7±1.6; for fasted serum insulin at baseline: baseline before treatment
Protocol: (§5) All data are represented as group mean±SEM. Data were analyzed using Prism 7.0 (Graphpad software). All normalizations were calculated using terminal body weight. All assigned animals completed the study. […] Treatment effects compared to vehicle were determined using Oneway ANOVA (*, p<0.05; *, P<0.01) followed by Dunnett's test where appropriate.

DIO mice [11] = test: Example 2: terminal liver and epididymal fat weights in DIO mice; format: in vivo; conditions: 6 weeks; for epididymal fat weight (% body weight): vehicle 3.4±0.3; for liver weight (% body weight): vehicle 5.6±0.2
Protocol: Animals were terminated using CO2 inhalation and induction of pneumothorax. Four mice from each treatment group were sacrificed at 0.5 hr post dose and four were sacrificed at 4 hours post dose. […] Organ weights (liver, epididymal fat) were recorded. All data are represented as group mean±SEM. Data were analyzed using JMP (SAS software). All normalizations were calculated using terminal body weight. All assigned animals completed the study. […] Treatment effects compared to vehicle were determined using Oneway ANOVA (*, p<0.05) followed by Dunnett's test where appropriate.

DIO mice [12] = test: Example 3: oral glucose tolerance test (OGTT) in DIO mice; format: in vivo; conditions: for OGTT glucose AUC on day 28: vehicle 25.5±1.4; for OGTT glucose AUC at baseline: day −1 before treatment
Protocol: as §5

[13] = Example 3: body weight of DIO mice, 4 weeks BID oral dosing; format: in vivo; conditions: for body weight growth rate / body weight at the end of the study: 4 weeks; for body weight growth rate: vehicle 9.2±2.0%; for body weight at the end of the study: vehicle 48.8±0.9; for body weight at baseline: baseline before treatment
Protocol: Body weight was recorded prior to glucose measurement at baseline and weekly thereafter. All data are represented as group mean±SEM. Data were analyzed using Prism 7.0 (Graphpad software). All normalizations were calculated using terminal body weight. All assigned animals completed the study. […] Treatment effects compared to vehicle were determined using Oneway ANOVA (*, p<0.05; *, P<0.01) followed by Dunnett's test where appropriate.

[14] = non-CF BE patients, 28 days, cited from earlier work

CC1=C(C#N)[C@@H](c2ccc(C#N)cc2S(C)(=O)=O)N(C)C(=O)N1c1cccc(C(F)(F)F)c1 [Compound 1, (4S)-4-[4-cyano-2-(methylsulfonyl)phenyl]-3,6-dimethyl-2-oxo-1-[3-(trifluoromethyl)phenyl]-1,2,3,4-tetrahydropyrimidine-5-carbonitrile]
solubility in acetone ([1]; acetone): soluble
solubility in ethanol ([1]; ethanol): very slightly soluble
hygroscopicity ([1]; normal storage conditions): not hygroscopic
solubility in water ([1]; water): practically insoluble
AE rate compared with placebo subjects [2]: somewhat lower than that in the control (placebo) subjects
effects on laboratory safety evaluations (clinical chemistry and hematology) [2]: no clear effects
serious AEs, discontinuations, deaths [2]: no serious AEs and no discontinuations or deaths
occurrence of headache ([2]; 36 subjects on drug): only observed in one Compound 1 subject
decrease of glucose AUC on day 42 compared to baseline (DIO mice [3]; 3 mg/kg PO): 20.0±4.5%
OGTT glucose AUC on day 42 (DIO mice [3]; 3 mg/kg/day PO): 28.6±0.7 mg/dL/min×10^3
OGTT glucose AUC on day 28 (DIO mice [3]; 3 mg/kg/day PO): 24.0±0.9 mg/dL·min×10^3
decrease of glucose AUC on day 42 compared to baseline (DIO mice [3]; 15 mg/kg PO): −21.9±5.0%
OGTT glucose AUC on day 42 (DIO mice [3]; 15 mg/kg/day PO): 26.3±1.1 mg/dL/min×10^3
OGTT glucose AUC on day 28 (DIO mice [3]; 15 mg/kg/day PO): 22.7±0.7 mg/dL·min×10^3
OGTT glucose AUC at baseline (DIO mice [3]; group assigned to 3 mg/kg/day): 36.3±2.0 mg/dL·min×10^3
OGTT glucose AUC at baseline (DIO mice [3]; group assigned to 15 mg/kg/day): 34.4±2.2 mg/dL·min×10^3
fed glucose on day 35 (DIO mice [4]; 3 mg/kg/day PO): 128.3 ± 3.4 mg/dL
decrease of fasting glucose from baseline (DIO mice [4]; 15 mg/kg/day PO, 6 weeks): 11%
fed glucose on day 35 (DIO mice [4]; 15 mg/kg/day PO): 134.9 ± 4.7 mg/dL
fasted blood glucose at study start (DIO mice [4]; group assigned to 3 mg/kg/day): 160.3 ± 5.7 mg/dL
fasted blood glucose at study start (DIO mice [4]; group assigned to 15 mg/kg/day): 164.6 ± 7.3 mg/dL
safety and tolerability ([5]; single and repeated doses up to 1 mg for up to 14 days): safe and well tolerated
serious adverse events (SAEs) ([5]; three Phase 1 studies): no serious AEs (SAEs) were reported
study drug-induced laboratory or ECG abnormalities ([5]; three Phase 1 studies): No safety signals
exposure (AUC and Cmax) versus dose [6]: proportional increases in exposure (AUC and Cmax) with dose
terminal body weight ([7]; 3 mg/kg/day PO): 49.8 ± 0.9 g
growth rate of body weight ([7]; 15 mg/kg/day PO, 6 weeks, vehicle 14±1.8%): 6.9±1.8%
terminal body weight ([7]; 15 mg/kg/day PO): 47.3 ± 1.1 g
body weight at baseline ([7]; group assigned to 3 mg/kg/day): 42.8 ± 1.1 g
body weight at baseline ([7]; group assigned to 15 mg/kg/day): 42.8 ± 1.0 g
blood glucose at day 28 (DIO mice [8]; 15 mg/kg BID PO): 151.9 ± 6.1 mg/dL
blood glucose at day 28 (DIO mice [8]; 30 mg/kg BID PO): 137.3 ± 4.1 mg/dL
fasted blood glucose at study start (DIO mice [8]; group assigned to 15 mg/kg BID): 185.1 ± 8.3 mg/dL
fasted blood glucose at study start (DIO mice [8]; group assigned to 30 mg/kg BID): 180.1 ± 7.0 mg/dL
fasted serum insulin on day 42 (DIO mice [9]; 3 mg/kg/day PO (low dose)): 11.8 ± 1.3 ng/mL
fasted serum insulin on day 42 (DIO mice [9]; 15 mg/kg/day PO (higher dose)): 5.9 ± 1.5 ng/mL
fasted serum insulin at baseline (DIO mice [9]; group assigned to 3 mg/kg/day): 3.5 ± 0.5 ng/mL
fasted serum insulin at baseline (DIO mice [9]; group assigned to 15 mg/kg/day): 5.4 ± 1.0 ng/mL
fasted serum insulin on day 28 (DIO mice [10]; 15 mg/kg BID PO): 5.8 ± 1.4 ng/mL
fasted serum insulin on day 28 (DIO mice [10]; 30 mg/kg BID PO): 4.0 ± 0.3 ng/mL
fasted serum insulin at baseline (DIO mice [10]; group assigned to 15 mg/kg BID): 7.0 ± 1.1 ng/mL
fasted serum insulin at baseline (DIO mice [10]; group assigned to 30 mg/kg BID): 4.9 ± 0.6 ng/mL
epididymal fat weight (% body weight) (DIO mice [11]; 3 mg/kg/day PO): 3.1±0.3%
liver weight (% body weight) (DIO mice [11]; 3 mg/kg/day PO): 6.8±0.3%
epididymal fat weight (% body weight) (DIO mice [11]; 15 mg/kg/day PO): 3.5±0.2%
liver weight (% body weight) (DIO mice [11]; 15 mg/kg/day PO): 6.4±0.2%
OGTT glucose AUC on day 28 (DIO mice [12]; 15 mg/kg BID PO): 24.7±1.9 mg/dL·min×10^3
OGTT glucose AUC on day 28 (DIO mice [12]; 30 mg/kg BID PO): 22.4±1.0 mg/dL·min×10^3
OGTT glucose AUC at baseline (DIO mice [12]; group assigned to 15 mg/kg BID): 33.8±0.9 mg/dL-min×10^3
OGTT glucose AUC at baseline (DIO mice [12]; group assigned to 30 mg/kg BID): 32.8±1.8 mg/dL-min×10^3
body weight growth rate ([13]; 15 mg/kg BID PO): 5.9±1.6%
body weight at the end of the study ([13]; 15 mg/kg BID PO): 47.5 ± 1.3 g
body weight growth rate ([13]; 30 mg/kg BID PO): 2.8±2.3%
body weight at the end of the study ([13]; 30 mg/kg BID PO): 46.0 ± 1.2 g
body weight at baseline ([13]; group assigned to 15 mg/kg BID): 44.8 ± 0.7 g
body weight at baseline ([13]; group assigned to 30 mg/kg BID): 44.8 ± 0.7 g
safety and tolerability ([14]; 1.0 mg oral IR tablet): generally safe and well tolerated
SAEs attributed to the drug ([14]; 1.0 mg oral): no SAEs were attributed by the investigator to the drug
study drug-induced laboratory parameter or ECG effects ([14]; 1.0 mg oral): No safety signals

CN(CCOc1ccc(CC2SC(=O)NC2=O)cc1)c1ccccn1 (stereo not drawn) [rosiglitazone, reference compound]
decrease of fasting glucose compared to baseline (DIO mice [4]; 30 mg/kg/day PO, 6 weeks): 23%
fasting glucose after 6 weeks of treatment (DIO mice [4]; 30 mg/kg/day PO, 6 weeks): 125.8 ± 4.8 mg/dL
fed glucose on day 35 (DIO mice [4]; 30 mg/kg/day PO): 125.5 ± 4.5 mg/dL
fasted blood glucose at study start (DIO mice [4]; group assigned to 30 mg/kg/day): 164.0 ± 4.0 mg/dL
terminal body weight ([7]; 30 mg/kg/day PO): 55.0 ± 1.4 g
body weight at baseline ([7]; group assigned to 30 mg/kg/day): 42.8 ± 1.0 g
fasted serum insulin on day 42 (DIO mice [9]; 30 mg/kg/day PO): 1.3 ± 0.1 ng/mL
fasted serum insulin at baseline (DIO mice [9]; group assigned to 30 mg/kg/day): 5.2 ± 1.1 ng/mL
epididymal fat weight (% body weight) (DIO mice [11]; 30 mg/kg/day PO): 3.7±0.2%
liver weight (% body weight) (DIO mice [11]; 30 mg/kg/day PO): 5.0±0.2%
